# Measured values as given in article PMC10485979, “CUDC-907, a dual PI3K/histone deacetylase inhibitor, increases meta-iodobenzylguanidine uptake (^123/131I-mIBG) in vitro and in vivo: a promising candidate for advancing theranostics in neuroendocrine tumors” (Journal of Translational Medicine, 2023).
# Experiments:
# [1] = molecular target: T1, norepinephrine transporter (NET) (Homo sapiens, UniProt P23975); assay: inhibition of mIBG internalization in HEK-NET cells, LC-MS/MS quantification; assay type: cell-based
# T1 construct: gene SLC6A2; human NET expressed in transfected HEK293 cells
# [2] = substrate: N=C(N)NCc1cccc(I)c1; assay: cells, lysate or membranes
# T1 sequence (P23975 whole entry): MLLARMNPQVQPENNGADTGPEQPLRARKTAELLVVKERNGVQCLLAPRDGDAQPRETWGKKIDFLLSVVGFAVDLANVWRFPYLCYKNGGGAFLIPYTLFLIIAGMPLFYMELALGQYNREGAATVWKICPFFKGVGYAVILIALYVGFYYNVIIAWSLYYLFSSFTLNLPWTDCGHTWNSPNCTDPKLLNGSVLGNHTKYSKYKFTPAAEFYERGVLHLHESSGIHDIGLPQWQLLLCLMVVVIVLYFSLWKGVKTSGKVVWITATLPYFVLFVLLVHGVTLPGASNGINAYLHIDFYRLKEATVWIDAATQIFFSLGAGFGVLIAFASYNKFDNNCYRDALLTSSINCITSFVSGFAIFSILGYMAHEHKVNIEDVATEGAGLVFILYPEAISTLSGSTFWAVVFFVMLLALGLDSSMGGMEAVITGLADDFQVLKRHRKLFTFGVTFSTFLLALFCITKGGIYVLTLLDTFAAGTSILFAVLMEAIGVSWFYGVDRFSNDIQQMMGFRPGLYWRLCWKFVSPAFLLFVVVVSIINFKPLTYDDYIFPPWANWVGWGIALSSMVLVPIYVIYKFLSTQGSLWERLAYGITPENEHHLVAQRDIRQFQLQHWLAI
Molecule,IC50 [1],Km [2]
c1ccc(CCCN2CCN(CCOC(c3ccccc3)c3ccccc3)CC2)cc1 [GBR12935],3.61 µM,
dopamine transporter (DAT) (Homo sapiens) (protein) MSKSKCSVGLMSSVVAPAKEPNAVGPKEVELILVKEQNGVQLTSSTLTNPRQSPVEAQDRETWGKKIDFLLSVIGFAVDLANVWRFPYLCYKNGGGAFLVPYLLFMVIAGMPLFYMELALGQFNREGAAGVWKICPILKGVGFTVILISLYVGFFYNVIIAWALHYLFSSFTTELPWIHCNNSWNSPNCSDAHPGDSSGDSSGLNDTFGTTPAAEYFERGVLHLHQSHGIDDLGPPRWQLTACLVLVIVLLYFSLWKGVKTSGKVVWITATMPYVVLTALLLRGVTLPGAIDGIRAYLSVDFYRLCEASVWIDAATQVCFSLGVGFGVLIAFSSYNKFTNNCYRDAIVTTSINSLTSFSSGFVVFSFLGYMAQKHSVPIGDVAKDGPGLIFIIYPEAIATLPLSSAWAVVFFIMLLTLGIDSAMGGMESVITGLIDEFQLLHRHRELFTLFIVLATFLLSLFCVTNGGIYVFTLLDHFAAGTSILFGVLIEAIGVAWFYGVGQFSDDIQQMTGQRPSLYWRLCWKLVSPCFLLFVVVVSIVTFRPPHYGAYIFPDWANALGWVIATSSMAMVPIYAAYKFCSLPGSFREKLAYAIAPEKDRELVDRGEVRQFTLRHWLKV,,2.807 µM
